The results in this text go back to US7709511B2, “Benzothiazolone derivatives” (AstraZeneca AB, priority 2005, dated 2010).

The experiment has as its target T1, recombinant human α1D receptor (Homo sapiens, UniProt P25100).
T1 construct: made in house; host or cells: HEK293 cells (membranes)
T1 sequence (P25100 1-572): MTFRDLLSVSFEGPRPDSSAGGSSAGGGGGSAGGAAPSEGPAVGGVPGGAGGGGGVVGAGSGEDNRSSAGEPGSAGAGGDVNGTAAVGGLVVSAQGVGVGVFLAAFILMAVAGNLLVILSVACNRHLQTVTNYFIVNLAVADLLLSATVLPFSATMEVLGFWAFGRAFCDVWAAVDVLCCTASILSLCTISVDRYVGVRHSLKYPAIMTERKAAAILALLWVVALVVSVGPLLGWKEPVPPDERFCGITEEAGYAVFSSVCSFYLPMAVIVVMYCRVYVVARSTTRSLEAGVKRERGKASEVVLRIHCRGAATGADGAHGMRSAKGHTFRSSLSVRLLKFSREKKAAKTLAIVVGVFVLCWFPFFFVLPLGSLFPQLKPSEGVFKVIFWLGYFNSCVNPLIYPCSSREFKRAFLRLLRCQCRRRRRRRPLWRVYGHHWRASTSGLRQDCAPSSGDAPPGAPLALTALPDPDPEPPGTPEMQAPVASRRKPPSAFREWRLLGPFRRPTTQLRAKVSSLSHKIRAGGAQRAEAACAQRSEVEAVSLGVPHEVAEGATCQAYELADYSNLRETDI
The experiment can be described thus: Adrenergic α1D selectivity assay, inhibition of [3H]-prazosin binding to membranes. The following applies: HEK293 membranes, [3H]-prazosin 0.3 nM; read-out: α1 bind pIC50 (converted). How it is done: Membranes were prepared from human embryonic kidney 293 (HEK293) cells expressing recombinant human α1D receptor. These were diluted in Assay Buffer (50 mM HEPES, 1 mM EDTA, 0.1% gelatin, pH 7.4) to provide a final concentration of membranes that gave a clear window between maximum and minimum specific binding.
Assays were performed in U-bottomed 96-well polypropylene plates. 10 μL [^3H]-prazosin (0.3 nM final concentration) and 10 μL of test compound (10× final concentration) were added to each test well. For each assay plate 8 replicates were obtained for [^3H]-prazosin binding in the presence of 10 μL vehicle (10% (v/v) DMSO in Assay Buffer; defining maximum binding) or 10 μL BMY7378 (10 μM final concentration; defining non-specific binding (NSB)). Membranes were then added to achieve a final volume of 100 μL. The plates were incubated for 2 hours at room temperature and then filtered onto PEI coated GF/B filter plates, pre-soaked for 1 hour in Assay Buffer, using a 96-well plate Tomtec cell harvester. Five washes with 250 μL wash buffer (50 mM HEPES, 1 mM EDTA, pH 7.4) were performed at 4° C. to remove unbound radioactivity. The plates were dried then sealed from underneath using Packard plate sealers and MicroScint-O (50 μL) was added to each well. The plates were sealed (TopSeal A) and filter-bound radioactivity was measured with a scintillation counter (TopCount, Packard BioScience) using a 3-minute counting protocol.
Total specific binding (B0) was determined by subtracting the mean NSB from the mean maximum binding. NSB values were also subtracted from values from all other wells. […] Data was fitted to a four parameter logistic equation to determine the compound potency, which was expressed as pIC50 (negative log molar concentration inducing 50% inhibition of [^3H]-prazosin binding).

Counter-ions that a name gives are not always drawn.

In the case of `CCN(CC)CCN(CCNCCc1ccc(O)c2[nH]c(=O)sc12)C(=O)CCOCCc1cccc(C)c1` [Example 28, N-[2-(Diethylamino)ethyl]-N-(2-{[2-(4-hydroxy-2-oxo-2,3-dihydro-1,3-benzothiazol-7-yl)ethyl]amino}ethyl)-3-[2-(3-methylphenyl)ethoxy]propanamide], the IC50 was 1260 nM.

Regarding `CCN(CC)CCN(CCNCCc1ccc(O)c2[nH]c(=O)sc12)C(=O)CCOCCc1ccc(Cl)cc1` [Example 26, 3-[2-(4-Chlorophenyl)ethoxy]-N-(2-diethylaminoethyl)-N-{2-[2-(4-hydroxy-2-oxo-2,3-dihydro-1,3-benzothiazol-7-yl)ethylamino]ethyl}propanamide dihydrobromide], the IC50 was 3160 nM.
